These results are taken from patent US8034799B2, “Preventing and/or treating cardiovascular disease and/or associated heart failure” (Philera New Zealand Limited, priority 2002, dated 2011).

Each structure is given as a SMILES string.

For this assay, the system named is diabetic (STZ) and nondiabetic male Wistar rats. From the text: Nondiabetic animals received an equivalent volume of saline.
All animals were fasted overnight prior to surgery but continued to have ad libitum access to deionized water. […] The femoral artery and vein were cannulated with a solid-state blood pressure transducer (Mikrotip™ 1.4F, Millar Instruments, Texas, USA) and a saline filled PE 50 catheter respectively. The ureters were exposed via a midline abdominal incision, cannulated using polyethylene catheters (external diameter 0.9 mm, internal diameter 0.5 mm) and the wound sutured closed. The trachea was cannulated and the animal ventilated at 70-80 breaths·min^−1 with air supplemented with O2 (Pressure Controlled Ventilator, Kent Scientific, Connecticut, USA). The respiratory rate and end-tidal pressure (10-15 cm H2O) were adjusted to maintain end-tidal CO2 at 35-40 mm Hg (SC-300 CO2 Monitor, Pryon Corporation, Wisconsin, USA). Body temperature was maintained at 37° C. throughout surgery and the experiment by a heating pad. Estimated fluid loss was replaced with intravenous administration of 154 mmol·l^−1 NaCl solution at a rate of 5 ml·kg^−1·h^−1.
Following surgery and a 20 min stabilization period, the experimental protocol was started. Trientine was administered intravenously over 60 s in hourly doses of increasing concentration (0.1, 1.0, 10 and 100 mg·kg^−1 in 75 μl saline followed by 125 μl saline flush). Control animals received an equivalent volume of saline. Urine was collected in 15 min aliquots throughout the experiment in pre-weighed polyethylene epindorph tubes. At the end of the experiment a terminal blood sample was taken by cardiac puncture and the separated serum stored at −80° C. until future analysis. Hearts were removed through a rapid mid-sternal thoracotomy and processed as described below.
Instrumentation: A Perkin Elmer (PE) Model 3100 Atomic Absorption Spectrophotometer equipped with a PE HGA-600 Graphite Furnace and PE AS-60 Furnace Autosampler was used for Cu and Fe determinations in urine. Deuterium background correction was employed. A Cu or Fe hollow-cathode lamp (Perkin Elmer Corporation) was used and operated at either 10 W (Cu) or 15 W (Fe). The 324.8 nm atomic line was used for Cu and the 248.3 nm atomic line for Fe. The slit width for both Cu and Fe was 0.7 nm. Pyrolytically coated graphite tubes were used for all analyses. The injection volume was 20 μL. A typical graphite furnace temperature program is shown below.
Urine: Urine was collected in pre-weighed 1.5 ml micro test tubes (eppendorf). After reweighing, the urine specimens were centrifuged and the supernatant diluted 25:1 with 0.02 M 69% Aristar grade HNO3. The sample was stored at 4° C. prior to GF-AAS analysis. If it was necessary to store a sample for a period in excess of 2 weeks, it was frozen and kept at −20° C.
Statistical analyses were as follows: All values are expressed as mean±SEM and P values <0.05 were considered statistically significant. Student's unpaired t-test was initially used to test for weight and glucose differences between the diabetic and control groups.

Consider `NCCNCCNCCN` [trientine, N,N′-Bis(2-aminoethyl)-1,2-ethanedi-amine], for which the “copper excretion versus saline, mixed linear model” value (all dose levels) is “significantly higher excretion of copper”. For the same molecule, where the note is “animals receiving trientine”, the “greater iron excretion per gram of body weight in diabetic than nondiabetic animals” value is listed as “not evident”. Moreover, the “total iron excretion versus saline” value (both diabetic and nondiabetic animals) is on record as “not different”. Further, for the setting “both nondiabetic and diabetic animals”, the “total copper excreted over the entire duration of the experiment versus saline controls” value is “significantly increased”. The “increase of urine excretion versus equivalent volume of saline” value (diabetic animals, 100 mg·kg^−1 i.v.) is recorded as “not seen”. Further, the “iron excretion (μg), saline versus drug” value (diabetic animals, at most doses) was “greater in animals administered saline than in those administered drug”. For the setting “dose levels of 1.0 mg·kg^−1 and above”, the “diabetes x drug interaction effect on copper excretion, mixed linear model” value is “significant”. Further, the “total copper per gram of body weight, diabetic versus nondiabetic animals receiving drug” value (entire experiment) is listed as “excreted more total copper per gram of body weight”. In addition, the “copper excretion per gram of body weight, diabetic versus nondiabetic animals” value (in response to each dose of drug) is “significantly greater copper excretion per gram of body weight”. The “greater total iron excretion per gram of body weight in diabetic than nondiabetic animals” value (in response to trientine) is reported as “not seen”. Also, the “urine excretion versus equivalent volume of saline” value (nondiabetic animals, 100 mg·kg^−1 i.v.) is “increased urine excretion”.
